From patent publication EP2662079A1 (Ordway Research Institute, Inc., priority 2012, dated 2013)
Several values for one entry are separate records, joined by “and”; a condition that tells them apart may be missing. Equal entries are not always repeated.

Experiments:
[1] = tested on: chick chorioallantoic membrane (CAM); assay: Chorioallantoic membrane (CAM) model of angiogenesis; assay type: in vivo; settings: for Mean Branch points: n=8
Procedure: In vivo neovascularization was examined by methods described previously. 9-12 Ten-day-old chick embryos were purchased from SPAFAS (Preston, CT) and incubated at 37°C with 55% relative humidity. A hypodermic needle was used to make a small hole in the shell concealing the air sac, and a second hole was made on the broad side of the egg, directly over an avascular portion of the embryonic membrane that was identified by candling. A false air sac was created beneath the second hole by the application of negative pressure at the first hole, causing the CAM to separate from the shell. A window approximately 1.0 cm^2 was cut in the shell over the dropped CAM with a small-crafts grinding wheel (Dremel, division of Emerson Electric Co.), allowing direct access to the underlying CAM. FGF2 (1µg/mL) was used as a standard proangiogenic agent to induce new blood vessel branches on the CAM of 10-day-old embryos. Sterile disks of No. 1 filter paper (Whatman International) were pretreated with 3 mg/mL cortisone acetate and 1 mmol/L PTU and air dried under sterile conditions. Thyroid hormone, hormone analogs, FGF2 or control solvents, and inhibitors were then applied to the disks and the disks allowed to dry. The disks were then suspended in PBS and placed on growing CAMs. […] At 24 hours, the MAPK cascade inhibitor PD 98059 was also added to CAMs topically by means of the filter disks.
After incubation at 37°C with 55% relative humidity for 3 days, the CAM tissue directly beneath each filter disk was resected from control and treated CAM samples. Tissues were washed 3X with PBS, placed in 35-mm Petri dishes (Nalge Nunc), and examined under an SV6 stereomicroscope (Zeiss) at X50 magnification. Digital images of CAM sections exposed to filters were collected using a 3-charge-coupled device color video camera system (Toshiba) and analyzed with Image-Pro software (Media Cybernetics). The number of vessel branch points contained in a circular region equal to the area of each filter disk were counted. One image was counted in each CAM preparation, and findings from 8 to 10 CAM preparations were analyzed for each treatment condition (thyroid hormone or analogs, FGF2, FGF2 antibody, PD 98059). In addition, each experiment was performed 3 times. The resulting angiogenesis index is the mean ± SEM of new branch points.

Matrigel plugs = assay: Mouse Matrigel model of angiogenesis (plug hemoglobin); assay type: in vivo, mice (C57BL/6NCr); settings: for Inhibition of FGF induced angiogenesis (grade): mouse matrigel model
Procedure: Normal male mice (C57BL/6NCr) 6-8 weeks of age and weighing ~20 g were purchased from Taconic farm. Animals were housed 4 per cage, in controlled conditions of temperature (20-24 °C); humidity (60-70%) and 12 hrs. light/dark cycle provided with food and water ad libitum. […] Matrigel (BD Bioscience, San Jose CA) was thawed overnight at 4 °C and placed on ice. Aliquots of matrigel were placed into cold polypropylene tubes to prevent the matrigel from solidifying and the angiogenesis promoter added to matrigel with or without agonist. Mice were treated daily. Matrigel was subcutaneously injected as triple injection per animal at 100 µL/animal. At day 14 post plug implant all animals were killed in CO2 chamber and matrigel plugs were collected. […]
The matrigel plugs dissected from the mice were carefully stripped of any remaining peritoneum. The plugs were placed into 0.5 mL tube of ddH2O and homogenized for 5-10 min. […] Absorbance was read with a Microplate Manager ELISA reader at 540 nm. […] Hemoglobin concentration is a reflection of the number of blood vessels in the plugs.

[2] = tested on: transplantable liver tumor; settings: PTU alone; cited from earlier work
glioblastoma (GBM) = settings: mild hypothyroidism induced by PTU; cited from earlier work
ERK1/2 = assay: MAPK activation (nuclear phosphorylated ERK1/2 immunoblot); assay type: cell-based; settings: for effect on MAPK activation by T4: PD 98059 30 µmol/L or CGP41251 100 nmol/L for 30 minutes, then 10^-7 M T4
Procedure: ECV304 endothelial cells were cultured in M199 medium with 0.25% hormone-depleted serum 13 for 2 days. […] Nuclear fractions were pre-pared from all samples by the method reported previously (see Li et al., Carcinogenesis 29:62-69 (2008)), the proteins separated by polyacrylamide gel electrophoresis, and transferred to membranes for immunoblotting with antibody to phosphorylated ERK 1/2.

FGF2 cDNA = assay: RT-PCR of FGF2 in ECV304 cells; assay type: cell-based; settings: T4 10^-7 mol/L for 6 to 48 hours
Procedure: RNA (1 µg) was subjected to reverse transcription-polymerase chain reaction (RT-PCR) using the Access RT-PCR system (Promega). Total RNA was reverse transcribed into cDNA at 48°C for 45 minutes, then denatured at 94°C for 2 minutes. Second-strand synthesis and PCR amplification were performed for 40 cycles with denaturation at 94°C for 30 s, annealing at 60°C for 60 s, and extension at 68°C for 120 s, with final ex-tension for 7 minutes at 68°C after completion of all cycles. PCR primers for FGF2 were as follows: FGF2 sense strand 5'-[…]-3' (SEQ ID NO:1), antisense strand 5' […]-3' (SEQ ID NO:2); the length of the PCR product was 734 bp. Primers for GAPDH included the sense strand 5'-[…]-3' (SEQ ID NO:3), and antisense strand 5'-[…]-3' (SEQ ID NO:4); the length of the PCR product was 218 bp. […] The target bands of the gel were quantified using LabImage software (Kapelan), and the value for [FGF2/GAPDH]X10 calculated for each time point.

[3] = cited from earlier work
ECV304 endothelial cells = assay: FGF2 release from ECV304 endothelial cells (ELISA); assay type: cell-based
Procedure: ECV304 endothelial cells were cultured in M199 medium supplemented with 10% fetal bovine serum. […] After 72 hours, the supernatants were harvested and assays for FGF performed without dilution using a commercial ELISA system (R&D Systems) (See Davis et al., Circ Res 94:1500-1506 (2004)).

[4] = CAM model, FGF (1.25 µg/ml) + compound at 10 µg/plug
[5] = FGF 100 ng + compound 10 µg/plug, n= 7-14

For `CC(C)(C)OC(=O)Cc1cc(I)c(Oc2cc(I)c(O)c(I)c2)c(I)c1` [Tetrac analog 3, tert-Butyl-2-(4-(4-hydroxy-3,5-diiodophenoxy)-3,5-diiodophenyl)acetate], the “Mean % Inhibition” value [1, 4] was 88±13%, the “Mean Branch points” value [1, 4] was 79±7 and the “Hemoglobin (mg/mL)± SEM” value (Matrigel plugs; [5]) was 0.4 ± 0.1 mg/mL. For the same compound, the “Inhibition of FGF induced angiogenesis (grade)” value (“Inhibition … (grade)” for short) (Matrigel plugs) was “strong (compounds were considered to be strong inhibitors if they achieved more than 50% inhibition as compared to the control)”.

For `O=C(Cc1cc(I)c(Oc2cc(I)c(OCC3CO3)c(I)c2)c(I)c1)NC1CCCCC1` (centres unmarked) [Tetrac analog 6, N-cyclohexyl-2-(4-(3,5-diiodo-4-(oxiran-2-ylmethoxy)phenoxy)-3,5-diiodophenyl)acetamide], the “Hemoglobin (mg/mL)± SEM” value (Matrigel plugs; [5]) was 0.7 ± 0.1 mg/mL and the “Inhibition … (grade)” value (Matrigel plugs) was “strong (compounds were considered to be strong inhibitors if they achieved more than 50% inhibition as compared to the control)”.

For `CCCc1cc(=O)[nH]c(=S)[nH]1` [PTU, 6-N-propyl-2-thiouracil], the “growth rate versus control neoplasms” value [2] is listed as “no difference in growth rate” and the “improvement of the duration of survival” value (glioblastoma (GBM)) is listed as 3 fold.

In the case of `CNC(Cc1cc(I)c(Oc2cc(I)c(O)c(I)c2)c(I)c1)C(=O)[O-].O.O.[K+]` (centres unmarked) [T4 analog 10, Potassium 3-[4-(4-hydroxy-3,5-diiodophenoxy)-3,5-diiodophenyl]-2-(methylamino)propanoate dihydrate], the “Hemoglobin (mg/mL)± SEM” value (Matrigel plugs; 10 µg/matrigel plug, n= 6-7) is reported as 0.8 ± 0.2 mg/mL.

With `O=C(Cc1cc(I)c(Oc2cc(I)c(O)c(I)c2)c(I)c1)NC1CCCCC1` [Tetrac analog 4, N-cyclohexyl-2-(4-(4-hydroxy-3.5-diiodophenoxy)-3,5-diiodophenyl)acetamide] the “Hemoglobin (mg/mL)± SEM” value (Matrigel plugs; [5]) was 0.2 ± 0.1 mg/mL and the “Inhibition … (grade)” value (Matrigel plugs) was “strong (compounds were considered to be strong inhibitors if they achieved more than 50% inhibition as compared to the control)”.

With `CC(C)(C)OC(=O)NC(Cc1cc(I)c(Oc2cc(I)c(OCC3CO3)c(I)c2)c(I)c1)C(=O)OCC1CO1` (centres unmarked) [T4 analog 14, Oxiran-2-ylmethyl-2-(tert-butoxycarbonylamino)-3-(4-(3,5-diiodo-4-(oxiran-2-ylmethoxy)phenoxy)-3,5-diiodophenyl)propanoate] the “Hemoglobin (mg/mL)± SEM” value (Matrigel plugs; 10 µg/matrigel plug, n= 6-7) was 0.3 ± 0.1 mg/mL.

For `CCNC(Cc1cc(I)c(Oc2cc(I)c(O)c(I)c2)c(I)c1)C(=O)O` (centres unmarked) [T4 analog 11, 2-(Ethylamino)-3-[4-(4-hydroxy-3,5-diiodophenoxy)-3,5-diiodophenyl]propanoic acid], the “Mean % of stimulation (comparing to PBS)” value ([1]; CAM model, 0.1 µM) was 86.3 ± 9.4%, the “Mean Branch points” value ([1]; CAM model, 0.1 µM, mean ± SEM) was 136± 12.8 and the “Mean stimulation of angiogenesis (%)” value (Matrigel plugs; 10 µg/matrigel plug) was 45±33%. The “Hemoglobin (mg/mL)± SEM” value (Matrigel plugs; 10 µg/matrigel plug, n= 6-7) was 0.6 ± 0.2 mg/mL.

For `CC(C)[Si](OC(=O)Cc1cc(I)c(Oc2cc(I)c(O)c(I)c2)c(I)c1)(C(C)C)C(C)C` [Tetrac analog 5, Triisopropylsilyl-2-(4-(4-hydroxy-3,5-diiodophenoxy)-3,5-diiodophenyl)acetate], the “Hemoglobin (mg/mL)± SEM” value (Matrigel plugs; [5]) was 0.2 ± 0.1 mg/mL and the “Inhibition … (grade)” value (Matrigel plugs) was “strong (compounds were considered to be strong inhibitors if they achieved more than 50% inhibition as compared to the control)”.

In the case of `CO[C@@H]1[C@H](N(C)C(=O)c2ccccc2)C[C@H]2O[C@]1(C)n1c3ccccc3c3c4c(c5c6ccccc6n2c5c31)C(=O)NC4` [CGP41251], the “effect on MAPK activation by T4” value (ERK1/2) is reported as “blocked”.

For `COc1cccc(-c2cc(=O)c3ccccc3o2)c1N` [PD 98059], the “effect on blood vessel branching caused by T3 and T4” value ([1]; 3 µmol/L PD 98059) was “completely blocked” and the “effect on MAPK activation by T4” value (ERK1/2) was “inhibited”.

In the case of `N[C@@H](Cc1cc(I)c(Oc2cc(I)c(O)c(I)c2)c(I)c1)C(=O)O` [T4, L-thyroxine], the “generation of new blood vessels from existing vessels promoted” value ([1]; 10^7-10-^9 M) is reported as “two- to three-fold”, the “Branch pts ± SEM” value ([1]; CAM assay before conjugation, 0.1 µM) is reported as 137.3 ± 8.8 and the increase in angiogenesis ([1]; CAM model, 3 experiments (Figure 5A)) is reported as 1.5 fold. For the same compound, the “Mean % of stimulation (comparing to PBS)” value ([1]; CAM model, 0.1 µM) was 87.7 ± 7%, the “Mean Branch points” value ([1]; CAM model, 0.1 µM, mean ± SEM) was 137± 8 and the “ANGIOGENESIS INDEX” value ([1]; CAM model, 0.1uM, n = 8 per group) was 143.8 ± 7.9. For the same compound, the “increase in blood vessel branch formation” value ([1]; T4 0.1 µmol/L for 3 days) was 2.5 fold and 2.3 fold, the “appearance of phosphorylated ERK1/2 in cell nuclei” value (ERK1/2; T4 10^-7 mol/L) was ≤ 15 min and the “increase in abundance of FGF2 cDNA, corrected for GAPDH content” value (FGF2 cDNA) was “apparent by 6 hours”. For the same compound, the “pKa of the COOH (carboxylic acid) group” value [3] was ~2.0, the “pKa of the NH2 (amino) group” value [3] was “approximately 9.0” and the “pKa of the PhOH (phenol) group” value ([3]; fluorescent quenching) was 6.2. The “increase of FGF2 concentration in the medium” value (ECV304 endothelial cells; T4 (0.1 µmol/L) or T3 (0.01 µmol/L) for 3 days) was 1.4 fold, the “FGF2 (pg/mL/10^6 cells)” value (ECV304 endothelial cells; T4 (0.1 µmol/L), 3 days) was 39.2 ±2.8 pg/mL/10^6 cells and the “Hemoglobin (mg/mL)± SEM” value (Matrigel plugs; T4 (0.1 µM)) was 0.9 ± 0.2 mg/mL. The “Mean stimulation of angiogenesis (%)” value (Matrigel plugs; T4 (0.1 µM)) was 100±22% and the “Hemoglobin (mg/mL)± SEM” value (Matrigel plugs; T4 alone, 10 µg/matrigcl plug, n= 25) was 1.2 ± 0.4 mg/mL.
